The values below come from ChEMBL document CHEMBL5214913, “Cysteine proteases as potential targets for anti-trypanosomatid drug discovery” (Bioorg Med Chem, 2021).

The test system of test [1] is Trypanosoma cruzi. In words: Antitrypanosomal activity against Trypanosoma cruzi Dm28c epimastigotes assessed as reduction in parasite viability incubated for 48 hrs by trypan blue staining based Neubauer counting chamber analysis. Type of test: functional, organism-based.
Test [2] has as its system Trypanosoma cruzi. Kind of test: Antitrypanosomal activity against bloodstream Trypanosoma cruzi Y strain trypomastigote assessed as reduction in parasite viability incubated for 24 hrs by Neubauer chamber based analysis. It counts as functional, organism-based.
In test [3] the test system is Leishmania amazonensis. In words: Antileishmanial activity against Leishmania amazonensis promastigotes assessed as reduction in parasite survival measured after 48 hrs by Neubauer counting chamber based analysis. Type of test: functional. Particulars: read-out: LD50 (the source's name).
The test system of test [4] is Trypanosoma cruzi. Kind of test: Antiparasitic activity against Trypanosoma cruzi DM28c epimastigotes harboring TcMCA3 assessed reduction in parasite viability incubated for 72 hrs by MTT assay. Type of test: functional, organism-based. In general terms: Tetrazolium dyes change colour on reduction, which living cells bring about.

Where a SMILES comes first, the peptide text is derived from it. The star is where a group is joined. Cbz = O=C(OCc1ccccc1)*

As usually defined, the IC50 is the concentration that gives 50% inhibition.

For the compound `CC(C)[C@H](NC(=O)OCc1ccccc1)C(=O)N[C@H](C=O)Cc1ccccc1` (Cbz-Val-Phe-aldehyde), the IC50 in test [1] is 31.7 µM; in test [2] it was 20.4 µM. Besides, the LC50 in test [3] amounted to 23.3 µM.

In test [4], `C=CCc1cccc(/C=N/NC(=O)CN2CCN(Cc3ccccc3)CC2)c1O` [PAC-1] yielded an IC50 of 14 µM.
